Results as given in publication PMC7058016, “Photoinduced damage of AsLOV2 domain is accompanied by increased singlet oxygen production due to flavin dissociation” (Scientific Reports, 2020).

Molecular target: T1, AsLOV2 (Avena sativa, UniProt O49003, C450A)
T1 construct: gene NPH1-1; LOV2 domain, residues 404-547, N-terminal His10-tag kept (first 31 residues not native), E. coli BL21(DE3)
Assay: co-purified holoprotein; absorption and fluorescence spectra, FMN triplet lifetime, […] kDa filtration
Assay type: binding
Settings: 20 mM Tris-HCl pH 7.8, room temperature; before irradiation; no covalent adduct possible

T1 sequence (O49003 entry or part of it C450A): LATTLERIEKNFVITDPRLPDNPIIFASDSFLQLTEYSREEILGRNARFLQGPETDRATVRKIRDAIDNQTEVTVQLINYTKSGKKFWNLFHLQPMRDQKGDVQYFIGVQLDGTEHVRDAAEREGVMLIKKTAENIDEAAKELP

## Cc1cc2nc3c(=O)[nH]c(=O)nc-3n(C[C@H](O)[C@H](O)[C@H](O)COP(=O)(O)O)c2cc1C [flavin mononucleotide]
  co-purified holoprotein; absorption and fluorescence spectra, FMN triplet lifeti: before irradiation there was no free FMN detected in the filtrate
